Measurements reported in patent publication EP1285920A1, “C10 Ester sustituted taxanes as antitumor agents” (Florida State University Research Foundation, Inc., priority 2001, dated 2003).
Like-named read-outs stand apart in the source and are kept apart here.

Legend:
[1] = test system: Panc-1 pancreatic carcinoma; test: In vivo evaluation against Panc-1 human pancreatic carcinoma (Example 17)
SKMES lung carcinoma = test: In vivo evaluation of oral administration against SKMES human lung carcinoma xenograft (Example 21)
Protocol: Female Nu/Nu mice (6-8 weeks of age; implanted with 1 mm^3 SKMES lung carcinoma fragments in the flank) were sorted into treatment groups of six mice each. […] Treatments were administered as a single oral bolus on Day 1, and the study was terminated on Day 60.
(§1) A complete response is obtained if the tumor is not palpable at the end of the study.
The total response rate is defined as the percentage of evaluable animals (excluding deaths due to procedure or toxicity) in a group that experience complete or partial responses at the termination of the study.

[2] = test system: NCI-H1299 (H1299) carcinoma; test: In vivo evaluation against NCI-H1299 human lung carcinoma xenograft (i.v., Example 11)
Protocol: Antitumor compounds were formulated for an i.v. dosing regime prepared in the following vehicle: 10% ethanol, 10% Cremophor and 80% isotonic saline.
Vehicle control animals were dosed twice intravenously with half the total volume being given separated by one hour. The study was terminated on Day 60.
as §1
A tumor scoring system was designed to provide a more quantitative ranking of efficacy (therapeutic potential) among the antitumor agents evaluated against the different human solid tumor xenografts. Each mouse in a study was given a score of from 1 to 10 at the end of the study. The scores can be summarized as follows:
The individual score for each mouse was averaged into a mean score for each treatment group. […]
The treatment protocol for the H1299 test was identical to the SK-MES test protocol. […]

HCT116 = test: In Vitro cytotoxicity measured by the cell colony formation assay; assay type: cell-based, human; details: Homo sapiens, HCT-116; read-out: IN VITRO ID 50 HCT116
How it was run: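 Four hundred cells per dish in McCoy's 5a medium with 10% FBS were allowed to attach for 5 h at 37 °C. They were then exposed to compound for 72 h at 37 °C, added as a 10× stock made fresh in medium. After HBSS rinsing and refeeding, colonies were counted after 7 days.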

DU145 prostate carcinoma = test system: DU145 prostate carcinoma
Description: Dosing was initiated on Day 1. […] Treatment groups are detailed in Table 5.

A375 melanoma = test system: A375 melanoma
Protocol: Dosing was initiated on Day 1. […] Taxotere was given i.v. on a qd x 1 schedule at a dose of 70 mg/kg. […] The study was terminated on Day 60. Treatment groups are detailed in Table 9.

VM46 colon carcinoma = test system: VM46 colon carcinoma
Protocol: Dosing was initiated on Day 1. […] Taxotere was given i.v. at a dose of 70 mg/kg on a qd x 1 schedule.

MX-1 carcinoma = test system: MX-1 carcinoma
How it was run: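 Mice dosed with a single i.v. bolus (qd x 1) at each compound's MTD, formulated in 5% ethanol, 5% Cremophor, 90% isotonic saline. Study ended Day 60; complete response = tumor not palpable at study end.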

[3] = number of mice, i.v. qd x 1, mg/kg: Taxol 36, 0499 77, 0503 72.6, 0670 123.1, 0706 107.6, 0838 72.6, 0854 76.9, 6 mice/group, Day 60
[4] = number of mice, single oral bolus Day 1, mg/kg: Taxol 40, 0687 228, 0503 73, 6 mice/group, Day 60
[5] = number of 5 mice, i.v. qd x 1 at estimated MTD (Taxol 24 mg/kg split), Day 91
[6] = number of mice, i.v. qd x 1 at estimated MTD (Taxol 24 mg/kg, Taxotere 70 mg/kg), 6 mice/group (Taxotere 7), Day 60
[7] = VM46, i.v. qd x 1, six mice per group
[8] = number of mice, i.v. qd x 1, mg/kg: Taxol 24, 0499 77, 0503 72.6, 0670 123.1, 0706 107.6, 0838 72.6, 0854 46.6, 0983 67.4, Taxotere 70, 6 mice/group, Day 64

CCC(=O)O[C@H]1C(=O)[C@@]2(C)[C@H]([C@H](OC(=O)c3ccccc3)[C@]3(O)C[C@H](OC(=O)[C@H](O)[C@@H](NC(=O)OC(C)(C)C)c4ccccn4)C(C)=C1C3(C)C)[C@]1(OC(C)=O)CO[C@@H]1C[C@@H]2O [Compound 0503]
MDS ([1]; Panc-1 (Example 17), i.v. qd x 1 (compounds estimated MTD; Taxol 36 mg/kg split), days until tumor 1.5 g, ended Day 60): 47 to 56 days
Stable Disease ([1]; Panc-1 (Example 17), i.v. qd x 1, six mice per group): three
MDS (n) ([1]; mean days of survival until neoplasm reached 1.5 g, i.v. qd x 1, mg/kg: Taxol 36, 0499 77, 0503 72.6, 0670 123.1, 0706 107.6, 0838 72.6, 0854 76.9, 6 mice/group, terminated Day 60): 52.5 ± 2.1 (3) days
Toxic Deaths ([1]; number of mice, i.v. qd x 1, mg/kg: Taxol 36, 0499 77, 0503 72.6, 0670 123.1, 0706 107.6, 0838 72.6, 0854 76.9, 6 mice/group): 0
Complete Response [1, 3]: 0
Partial Response [1, 3]: 0
Stable Disease [1, 3]: 3
Survivors [1, 3]: 3
Mean Score ([1]; tumor scoring system, i.v. qd x 1, mg/kg: Taxol 36, 0499 77, 0503 72.6, 0670 123.1, 0706 107.6, 0838 72.6, 0854 76.9, 6 mice/group): 3.6 ± 0.4
complete responses (SKMES lung carcinoma; SKMES, 0503 73 mg/kg single oral bolus, six mice): three
% Total Response (SKMES lung carcinoma; complete or partial responses among evaluable animals, single oral bolus Day 1, mg/kg: Taxol 40, 0687 228, 0503 73): 50.0%
MDS (n) (SKMES lung carcinoma; mean days of survival until neoplasm reached 2.0 g, single oral bolus Day 1, mg/kg: Taxol 40, 0687 228, 0503 73, 6 mice/group, terminated Day 60): 29.8 ± 3.6 (3) days
Toxic Deaths (SKMES lung carcinoma; number of mice, single oral bolus Day 1, mg/kg: Taxol 40, 0687 228, 0503 73, 6 mice/group): 0
Complete Response (SKMES lung carcinoma; [4]): 3
Partial Response (SKMES lung carcinoma; [4]): 0
Stable Disease (SKMES lung carcinoma; [4]): 0
Survivors (SKMES lung carcinoma; [4]): 3
Partial Response ([2]; i.v. split dose qd x 1): 0
Stable Disease ([2]; i.v. split dose qd x 1): 3
antitumor activity ([2]; i.v. split dose qd x 1): significant efficacy
Survivors ([2]; i.v. split dose qd x 1, six mice per group): 5
Mean Score ([2]; tumor score 1 to 10 per mouse, group mean): 5.5 ± 1.6
IC50 (HCT116): < 1 nM
total response rate (DU145 prostate carcinoma; DU145, i.v. qd x 1 at estimated MTD, five mice per group): at least 50%
Mean Score (DU145 prostate carcinoma; i.v. qd x 1 at estimated MTD (Taxol 24 mg/kg split), 5 mice/group, Day 91): 6.2 ± 1.9
Stable Disease (DU145 prostate carcinoma; number of 5 mice, tumor did not reach 1.5 g by end of study, i.v. qd x 1 at estimated MTD (Taxol 24 mg/kg split), Day 91): 2
Toxic Deaths (DU145 prostate carcinoma; number of 5 mice, i.v. qd x 1 at estimated MTD (Taxol 24 mg/kg as two split doses), Day 91): 1
Complete Response (DU145 prostate carcinoma; [5]): 2
Partial Response (DU145 prostate carcinoma; [5]): 0
Survivors (DU145 prostate carcinoma; [5]): 4
survival extension compared to Group 1 controls (A375 melanoma; A375, i.v. qd x 1): 95%
Complete Response (A375 melanoma; A375, i.v. qd x 1, six mice per group): 1
MDS (n) (A375 melanoma; mean days of survival until neoplasm reached 2.0 g, i.v. qd x 1 at estimated MTD (Taxol 24 mg/kg, Taxotere 70 mg/kg), 6 mice/group (Taxotere 7), terminated Day 60): 28.1 ± 5.8 (3) days
Toxic Deaths (A375 melanoma; number of mice, i.v. qd x 1 at estimated MTD (Taxol 24 mg/kg, Taxotere 70 mg/kg), 6 mice/group (Taxotere 7)): 2
Complete Response (A375 melanoma; [6]): 1
Partial Response (A375 melanoma; [6]): 0
Stable Disease (A375 melanoma; [6]): 0
Survivors (A375 melanoma; [6]): 1
Mean Score (A375 melanoma; tumor scoring system, i.v. qd x 1 at estimated MTD (Taxol 24 mg/kg, Taxotere 70 mg/kg), 6 mice/group (Taxotere 7)): 2.8 ± 1.5
tolerability (VM46 colon carcinoma; VM46, i.v. qd x 1): well-tolerated
partial responses (VM46 colon carcinoma; VM46, i.v. qd x 1 (compounds estimated MTD; Taxol 24 mg/kg split), six mice per group, ended Day 64): four
Stable Disease (VM46 colon carcinoma; [7]): two
Toxic Deaths (VM46 colon carcinoma; [7]): no toxic deaths
response rate (VM46 colon carcinoma; VM46, i.v. qd x 1 at estimated MTD): 66.7%
Toxic Deaths (VM46 colon carcinoma; number of mice, i.v. qd x 1, mg/kg: Taxol 24, 0499 77, 0503 72.6, 0670 123.1, 0706 107.6, 0838 72.6, 0854 46.6, 0983 67.4, Taxotere 70, 6 mice/group): 0
Complete Response (VM46 colon carcinoma; [8]): 0
Partial Response (VM46 colon carcinoma; [8]): 4
Stable Disease (VM46 colon carcinoma; [8]): 1
Survivors (VM46 colon carcinoma; [8]): 5
Mean Score (VM46 colon carcinoma; tumor scoring system, i.v. qd x 1, mg/kg: Taxol 24, 0499 77, 0503 72.6, 0670 123.1, 0706 107.6, 0838 72.6, 0854 46.6, 0983 67.4, Taxotere 70, 6 mice/group): 7.3 ± 1.2
treated animals with durable complete responses and partial responses (MX-1 carcinoma; MX-1, single i.v. MTD): 100%
Mean Score (MX-1 carcinoma; i.v. qd x 1 at MTD, 6 mice/group, Day 60, doses as in E17): 9.7 ± 0.2
Stable Disease (MX-1 carcinoma; number of 6 mice, tumor did not reach 2.0 g by end of study, i.v. qd x 1 at MTD, Day 60, doses as in E17): 0
Complete Response (MX-1 carcinoma; number of 6 mice, tumor not palpable at end of study, i.v. qd x 1 at MTD, Day 60, doses as in E17): 4
Partial Response (MX-1 carcinoma; number of 6 mice, tumor smaller than on Day 1, i.v. qd x 1 at MTD, Day 60, doses as in E17): 2
Survivors (MX-1 carcinoma; number of 6 mice, i.v. qd x 1 at MTD, Day 60, doses as in E17): 6
Toxic Deaths (MX-1 carcinoma; number of 6 mice, i.v. qd x 1 at MTD, Day 60, mg/kg: Taxol 36 (split dose), 0503 72.6, 0536 49, 0663 159, 0670 123, 0687 159, 0706 108, 0908 159, 0947 76.9, 0951 72.6, 0983 67.4, 0999 49, 1003 49, 1011 108): 0
